From the supplement of paper PMC10307832 come the findings set out here.

What all share (experiment): relative viability (nuclei count vs DMSO), 5 days (fraction); higher = more cells survive
Compound in the assay “Irinotecan + OSI-027”: CCc1c2c(nc3ccc(OC(=O)N4CCC(N5CCCCC5)CC4)cc13)-c1cc3c(c(=O)n1C2)COC(=O)[C@]3(O)CC [Irinotecan] + COc1cccc2cc(-c3nc([C@H]4CC[C@H](C(=O)O)CC4)n4ncnc(N)c34)[nH]c12 [OSI-027] (partner 0.5 µM)
The essentials: (§1)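 Relative viability equals treated-well nuclei counts divided by vehicle-well nuclei counts. Counts came from 4× images of lung cancer cell lines grown in 1536-well plates for 5 days after pin-tool dosing on the day after seeding. Dosing used one drug alone or a fixed anchor-drug dose plus five library-drug doses (not always all listed) in √10 steps, and values are medians of duplicate plates.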

Compound in the assay “MK-8033 + Palbociclib”: Cn1cc(-c2cnc3ccc4ccc(CS(=O)(=O)NCc5ccccn5)cc4c(=O)c3c2)cn1 [MK-8033] + CC(=O)c1c(C)c2cnc(Nc3ccc(N4CCNCC4)cn3)nc2n(C2CCCC2)c1=O [Palbociclib] (partner 0.5 µM)
The essentials: as §1

Compound in the assay “MK-8033 + Foretinib”: Cn1cc(-c2cnc3ccc4ccc(CS(=O)(=O)NCc5ccccn5)cc4c(=O)c3c2)cn1 [MK-8033] + COc1cc2c(Oc3ccc(NC(=O)C4(C(=O)Nc5ccc(F)cc5)CC4)cc3F)ccnc2cc1OCCCN1CCOCC1 [Foretinib] (partner 0.25 µM)
A digest of the protocol:
as §1

Compound in the assay “MK-8033 + Pictilisib”: Cn1cc(-c2cnc3ccc4ccc(CS(=O)(=O)NCc5ccccn5)cc4c(=O)c3c2)cn1 [MK-8033] + CS(=O)(=O)N1CCN(Cc2cc3nc(-c4cccc5[nH]ncc45)nc(N4CCOCC4)c3s2)CC1 [Pictilisib] (partner 1 µM)
A digest of the protocol: as §1

Turning to PC-3 [JPC-3], the relative viability was found to be 0.46 in the assay with Irinotecan + OSI-027 (first compound 0.6325 µM); 0.785 with Irinotecan + OSI-027 (first compound 2 µM); 0.397 with Irinotecan + OSI-027 (first compound 6.325 µM); 0.344 with Irinotecan + OSI-027 (first compound 20 µM); 0.506 with MK-8033 + Palbociclib (first compound 0.02 µM); 0.505 with MK-8033 + Palbociclib (first compound 0.2 µM). Besides, the relative viability stood at 0.516 with MK-8033 + Palbociclib (first compound 0.6325 µM); 0.554 with MK-8033 + Palbociclib (first compound 2 µM); 0.977 with MK-8033 + Foretinib (first compound 0.02 µM); 0.952 with MK-8033 + Foretinib (first compound 0.06325 µM); 0.994 with MK-8033 + Foretinib (first compound 0.2 µM); 1 with MK-8033 + Foretinib (first compound 0.6325 µM). Moreover, the relative viability stood at 1.03 in the assay with MK-8033 + Foretinib (first compound 2 µM); 0.666 with MK-8033 + Pictilisib (first compound 0.02 µM); 0.655 with MK-8033 + Pictilisib (first compound 0.2 µM); 0.56 in the assay with MK-8033 + Pictilisib (first compound 0.6325 µM); 0.762 with MK-8033 + Pictilisib (first compound 2 µM).
In the case of PC-14, the relative viability with Irinotecan + OSI-027 (first compound 0.6325 µM) was 0.286; with Irinotecan + OSI-027 (first compound 2 µM), 0.498; in the assay with Irinotecan + OSI-027 (first compound 6.325 µM) it was 0.243; with Irinotecan + OSI-027 (first compound 20 µM), 0.117; in the assay with MK-8033 + Palbociclib (first compound 0.02 µM), 0.517; with MK-8033 + Palbociclib (first compound 0.06325 µM), 0.422. For the same cell line, the relative viability was found to be 0.542 with MK-8033 + Palbociclib (first compound 0.2 µM); 0.553 with MK-8033 + Palbociclib (first compound 0.6325 µM); 0.464 in the assay with MK-8033 + Palbociclib (first compound 2 µM); 0.918 with MK-8033 + Foretinib (first compound 0.02 µM); 0.859 with MK-8033 + Foretinib (first compound 0.06325 µM); 0.905 in the assay with MK-8033 + Foretinib (first compound 0.2 µM). Also, the relative viability with MK-8033 + Foretinib (first compound 0.6325 µM) worked out at 0.985; with MK-8033 + Foretinib (first compound 2 µM), 0.869; in the assay with MK-8033 + Pictilisib (first compound 0.02 µM), 0.652; with MK-8033 + Pictilisib (first compound 0.06325 µM), 0.514; with MK-8033 + Pictilisib (first compound 0.2 µM), 0.738; with MK-8033 + Pictilisib (first compound 0.6325 µM) it was 0.545. The relative viability with MK-8033 + Pictilisib (first compound 2 µM) came to 0.623.
Consider RERF-LC-KJ, for which the relative viability worked out at 0.364 with Irinotecan + OSI-027 (first compound 0.6325 µM); 0.492 with Irinotecan + OSI-027 (first compound 2 µM); 0.534 in the assay with Irinotecan + OSI-027 (first compound 6.325 µM); 0.112 with Irinotecan + OSI-027 (first compound 20 µM); 1.11 with MK-8033 + Palbociclib (first compound 0.02 µM); 1.07 with MK-8033 + Palbociclib (first compound 0.06325 µM). Besides, the relative viability with MK-8033 + Palbociclib (first compound 0.2 µM) was determined as 1.01; with MK-8033 + Palbociclib (first compound 0.6325 µM), 1.08; with MK-8033 + Palbociclib (first compound 2 µM), 1.08; with MK-8033 + Foretinib (first compound 0.02 µM), 0.869; with MK-8033 + Foretinib (first compound 0.06325 µM), 0.854; with MK-8033 + Foretinib (first compound 0.2 µM), 0.829. The relative viability with MK-8033 + Foretinib (first compound 0.6325 µM) was determined as 0.928; in the assay with MK-8033 + Foretinib (first compound 2 µM) it was 0.875; in the assay with MK-8033 + Pictilisib (first compound 0.02 µM), 0.508; with MK-8033 + Pictilisib (first compound 0.06325 µM), 0.417; in the assay with MK-8033 + Pictilisib (first compound 0.2 µM) it was 0.519; in the assay with MK-8033 + Pictilisib (first compound 0.6325 µM), 0.501. For the same cell line, the relative viability with MK-8033 + Pictilisib (first compound 2 µM) was found to be 0.533.
In the case of SK-LU-1, the relative viability with Irinotecan + OSI-027 (first compound 0.6325 µM) worked out at 0.302; with Irinotecan + OSI-027 (first compound 2 µM), 0.301; with Irinotecan + OSI-027 (first compound 6.325 µM), 0.293; in the assay with Irinotecan + OSI-027 (first compound 20 µM) it was 0.238; with MK-8033 + Palbociclib (first compound 0.02 µM), 0.411; with MK-8033 + Palbociclib (first compound 0.06325 µM), 0.373. The relative viability in the assay with MK-8033 + Palbociclib (first compound 0.2 µM) was found to be 0.373; with MK-8033 + Palbociclib (first compound 0.6325 µM), 0.367; in the assay with MK-8033 + Palbociclib (first compound 2 µM), 0.383; in the assay with MK-8033 + Foretinib (first compound 0.02 µM), 0.843; with MK-8033 + Foretinib (first compound 0.06325 µM) it was 0.813; with MK-8033 + Foretinib (first compound 0.2 µM), 0.837. Further, the relative viability with MK-8033 + Foretinib (first compound 0.6325 µM) worked out at 0.849; with MK-8033 + Foretinib (first compound 2 µM), 0.815; with MK-8033 + Pictilisib (first compound 0.02 µM), 0.658; with MK-8033 + Pictilisib (first compound 0.06325 µM), 0.499; with MK-8033 + Pictilisib (first compound 0.2 µM) it was 0.449; with MK-8033 + Pictilisib (first compound 0.6325 µM), 0.54. Moreover, the relative viability in the assay with MK-8033 + Pictilisib (first compound 2 µM) amounted to 0.622.
Take SK-MES-1: the relative viability with Irinotecan + OSI-027 (first compound 0.6325 µM) is 0.428; in the assay with Irinotecan + OSI-027 (first compound 2 µM), 0.538; in the assay with Irinotecan + OSI-027 (first compound 6.325 µM), 0.434; with Irinotecan + OSI-027 (first compound 20 µM), 0.15; in the assay with MK-8033 + Palbociclib (first compound 0.02 µM) it was 0.333; with MK-8033 + Palbociclib (first compound 0.06325 µM), 0.299. For the same cell line, the relative viability with MK-8033 + Palbociclib (first compound 0.2 µM) came out at 0.305; with MK-8033 + Palbociclib (first compound 0.6325 µM) it was 0.359; with MK-8033 + Palbociclib (first compound 2 µM) it was 0.309; in the assay with MK-8033 + Foretinib (first compound 0.02 µM) it was 0.899; in the assay with MK-8033 + Foretinib (first compound 0.06325 µM), 0.86; with MK-8033 + Foretinib (first compound 0.2 µM) it was 0.858. The relative viability with MK-8033 + Foretinib (first compound 0.6325 µM) was 0.805; with MK-8033 + Foretinib (first compound 2 µM), 0.851; with MK-8033 + Pictilisib (first compound 0.02 µM), 0.334; in the assay with MK-8033 + Pictilisib (first compound 0.06325 µM), 0.301; with MK-8033 + Pictilisib (first compound 0.2 µM) it was 0.328; with MK-8033 + Pictilisib (first compound 0.6325 µM), 0.405. Besides, the relative viability in the assay with MK-8033 + Pictilisib (first compound 2 µM) is 0.349.
As to SW 1573, the relative viability with Irinotecan + OSI-027 (first compound 0.6325 µM) is 0.213; with Irinotecan + OSI-027 (first compound 2 µM) it was 0.566; with Irinotecan + OSI-027 (first compound 6.325 µM), 0.231; with Irinotecan + OSI-027 (first compound 20 µM), 0.122; with MK-8033 + Palbociclib (first compound 0.02 µM), 0.373; with MK-8033 + Palbociclib (first compound 0.06325 µM), 0.392. The relative viability is 0.345 with MK-8033 + Palbociclib (first compound 0.2 µM); 0.409 with MK-8033 + Palbociclib (first compound 0.6325 µM); 0.389 with MK-8033 + Palbociclib (first compound 2 µM); 0.93 with MK-8033 + Foretinib (first compound 0.02 µM); 0.759 with MK-8033 + Foretinib (first compound 0.06325 µM); 0.841 in the assay with MK-8033 + Foretinib (first compound 0.2 µM). The relative viability with MK-8033 + Foretinib (first compound 0.6325 µM) turned out to be 0.918; with MK-8033 + Foretinib (first compound 2 µM), 0.995; in the assay with MK-8033 + Pictilisib (first compound 0.02 µM), 0.55; with MK-8033 + Pictilisib (first compound 0.06325 µM) it was 0.414; with MK-8033 + Pictilisib (first compound 0.2 µM), 0.462; with MK-8033 + Pictilisib (first compound 0.6325 µM) it was 0.463. Besides, the relative viability in the assay with MK-8033 + Pictilisib (first compound 2 µM) was 0.42.
